Reference: US8048458B2, “Saponin and preservative compositions for reduction of protozoa” (Sartec Corporation, priority 2006, dated 2011)

System: protozoa
Assay: In vitro treatment of washed rumen protozoa: cell count and Live/Dead stain, % killed
Assay type: cell-based, rumen protozoa from a Holstein-Friesian cow
Conditions: Yucca 1000 ppm where + Y, 2 hours, 39° C.; for % Viable: Live/Dead BacLight Stain; for % Killed by Treatment: standardized to blank
Protocol: Rumen contents were obtained from a rumen cannulated Holstein-Friesian cow 10 hours post-prandial. […] Sedimented protozoa were aspirated to fresh CBD and washed twice with warm CBD. Protozoa were resuspended in warm CBD.
Crude yucca was diluted in water to the desired concentration. […] Ethoxyquin was diluted in absolute ethanol to obtain concentrations which correspond to field concentrations of 0.5 g, 1.0 g and 1.5 g.
Experimental treatments were as follows:
Individual treatment tubes were flushed with carbon dioxide prior to sealing and placement at 39° C. for 2 hours with occasional mixing by tube inversion.
Total number of protozoa present in each treatment was determined on the formalin fixed preparation and on the corresponding sample the percentage of live protozoa as indicated by the Live/Dead® BacLight Stain was also determined.
[…] was determined by multiplying the percent of live protozoa by the total protozoa present in each treatment. […] The number of viable protozoa for each treatment was then subtracted from the number of viable protozoa present in the blank (control) treatment. The difference is the number killed by the corresponding treatment. The treatments were then standardized to the blank by calculating a percentage killed by treatment.

[1] = EQ 51.6 ug in vitro (0.5 g/head in vivo)
[2] = EQ 103 ug in vitro (1 g/head in vivo)
[3] = EQ 154 ug in vitro (1.5 g/head in vivo)

Question: For `CCOc1ccc2c(c1)C(C)=CC(C)(C)N2` [EQ, 1,2-dihydro-6-ethoxy-2,2,4-trimethylquinoline], which “# Live” value [1] is on record?
Answer: The value was 7.13E+04.

Question: What about the “% Killed by Treatment using Ethanol control as Baseline” value (“% Killed by Treatment … as Baseline” below) [1] of the same compound?
Answer: Its value is 23%.

Question: And the Cell count [1]?
Answer: The Cell count was 8.80E+04.

Question: And the “% Viable” value [1]?
Answer: The value was 81%.

Question: And the “% Killed by Treatment” value [1]?
Answer: The value was 18%.

Question: And the “# Live” value [2]?
Answer: The value was 7.35E+04.

Question: And the “% Killed by Treatment … as Baseline” value [2]?
Answer: The value was 20%.

Question: What about the Cell count [2] of the same compound?
Answer: Its Cell count is 9.30E+04.

Question: And the “% Viable” value [2]?
Answer: The value was 79%.

Question: What about the “% Killed by Treatment” value [2] of the same compound?
Answer: Its value is 16%.

Question: What about the “# Live” value [3] of the same compound?
Answer: The value was 5.40E+04.

Question: And the “% Killed by Treatment … as Baseline” value [3]?
Answer: Its value is 41%.

Question: What about the Cell count [3] of the same compound?
Answer: Its Cell count is 9.00E+04.

Question: And the “% Viable” value [3]?
Answer: Its value is 60%.

Question: What about the “% Killed by Treatment” value [3] of the same compound?
Answer: Its value is 38%.
